Measurements taken from US20220098203A1 (priority 2018, published 2022).

Key:
MAT2A homodimer = target: T1, MAT2A homodimer (Homo sapiens, UniProt P31153); assay: MAT2A biochemical assay (liberated phosphate, PiColorLock Gold); details: Table 5a; MAT2A biochemical assay; read-out: Enzyme Inhibition
T1 construct: inferred from the Ni sepharose purification and imidazole elution; made in house; host or cells: SF9 insect cells, recombinant baculovirus (Bac to Bac, pFASTBAC1)
Summary of the method: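 Readout is liberated phosphate (PiColorLock Gold), stoichiometric with SAM production, quantified against a potassium phosphate standard curve. Enzyme: recombinant MAT2A homodimer from Sf9, equilibrated 60 min at 25 °C with compound before 60 min reaction with substrate mix containing 500 μM ATP and 400 μM L-methionine.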

[1] = system: SAM in HCT116 MTAP-deleted cells; assay: Cellular assay of target engagement (SAM), LC-MS/MS; assay type: cell-based, human; details: Homo sapiens, HCT-116, Table 5a, 72 h, read-out: Cell 72 h SAM Inhibition (MTAP −/−)
Summary of the method: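 Target engagement was read as intracellular SAM, measured by LC-MS/MS with d3-SAM as internal standard in methanol/acetic acid extracts. These came from MTAP-deleted HCT116 colon carcinoma cells exposed to inhibitor for 72 hrs.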

HCT116 MTAP-/- = assay: Inhibition of cellular proliferation (Cell Titer Glo), HCT116 MTAP-/-; assay type: cell-based, human; details: Homo sapiens, HCT-116, 96 h, Table 5a, 4 days, read-out: 4 Day Relative Growth Inhibition (MTAP −/−)
Summary of the method: (§1)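 After 4 days of compound exposure at 37 °C, starting 24 h after plating, growth of the MTAP-wildtype and MTAP-deleted HCT116 pair was measured as ATP luminescence (CellTiter-Glo). The proliferation index was signal minus no-cell blank, divided by blank-corrected 0.2% DMSO control.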

HCT116 MTAP+/+ = assay: Inhibition of cellular proliferation (Cell Titer Glo), HCT116 MTAP+/+; assay type: cell-based; details: Homo sapiens, HCT-116, 96 h, Table 5a, 4 days, read-out: 4 Day Relative Growth Inhibition (MTAP +/+)
Summary of the method: as §1

T1 sequence (P31153 whole entry): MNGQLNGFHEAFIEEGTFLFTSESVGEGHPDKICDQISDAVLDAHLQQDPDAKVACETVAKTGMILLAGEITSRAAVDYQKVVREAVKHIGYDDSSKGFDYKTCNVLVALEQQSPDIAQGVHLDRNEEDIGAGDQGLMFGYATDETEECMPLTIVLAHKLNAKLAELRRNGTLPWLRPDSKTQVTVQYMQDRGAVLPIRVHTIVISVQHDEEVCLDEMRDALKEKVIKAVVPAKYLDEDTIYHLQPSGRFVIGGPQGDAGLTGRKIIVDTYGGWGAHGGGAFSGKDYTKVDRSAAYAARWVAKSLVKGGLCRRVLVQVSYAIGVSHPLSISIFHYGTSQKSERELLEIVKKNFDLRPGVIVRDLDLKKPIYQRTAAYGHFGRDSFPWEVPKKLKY

| Compound | IC50 (MAT2A homodimer) [nM] | IC50 [1] [nM] | IC50 (HCT116 MTAP-/-) [nM] | IC50 (HCT116 MTAP+/+) [nM] |
| --- | --- | --- | --- | --- |
| [2H]C([2H])([2H])Oc1ccc(N2C(=O)N(c3ccc4nn(C)cc4c3)Cc3cnc(NCC(F)(F)F)nc32)cc1 [Example 421, 1-(4-(methoxy-d3)phenyl)-3-(2-methyl-2H-indazol-5-yl)-7-((2,2,2-trifluoroethyl)amino)-3,4-dihydropyrimido[4,5-d]pyrimidin-2(1H)-one] | < 100 | < 100 | < 100 | > 1000 |
| COc1ccc(N2Cc3cnc(NCC(F)(F)F)nc3N(c3ccc(C4CC4)cc3)C2=O)cc1 [Example 242, 1-(4-cyclopropylphenyl)-3-(4-methoxyphenyl)-7-((2,2,2-trifluoroethyl)amino)-3,4-dihydropyrimido[4,5-d]pyrimidin-2(1H)-one] | < 100 | 100 to 1000 | 100 to 1000 | > 1000 |
| [2H]C([2H])([2H])Oc1ccc(N2C(=O)N(c3ccc4nn(C)cc4c3)Cc3c(NC)nc(NCC(F)(F)F)nc32)cc1 [Example 432, 1-(4-(methoxy-d3)phenyl)-3-(2-methyl-2H-indazol-5-yl)-5-(methylamino)-7-((2,2,2-trifluoroethyl)amino)-3,4-dihydropyrimido[4,5-d]pyrimidin-2(1H)-one] | < 100 | < 100 | < 100 | > 1000 |
| COc1ccc(N2C(=O)N(c3ccc4nn(C)cc4c3)Cc3cnc(NCC(F)(F)F)nc32)cc1 [Example 422, 1-(4-methoxyphenyl)-3-(2-methyl-2H-indazol-5-yl)-7-((2,2,2-trifluoroethyl)amino)-3,4-dihydropyrimido[4,5-d]pyrimidin2(1H)-one] | < 100 | < 100 | < 100 | > 1000 |
| [2H]C([2H])([2H])Oc1ccc(N2Cc3cnc(NCC(F)(F)F)nc3N(c3ccc(-c4nc[nH]n4)cc3)C2=O)cc1 [Example 215, 1-(4-(1H-1,2,4-triazol-3-yl)phenyl)-3-(4-(methoxy-d3)phenyl)-7-((2,2,2-trifluoroethyl)amino)-3,4-dihydropyrimido[4,5-d]pyrimidin-2(1H)-one] | < 100 | < 100 | 100 to 1000 | > 1000 |
| [2H]C([2H])([2H])Oc1ccc(N2C(=O)N(c3ccc4nn(C(C)C)cc4c3)Cc3ccc(OCC(F)F)nc32)cc1 [Example 118, 7-(2,2-difluoroethoxy)-3-(2-isopropyl-2H-indazol-5-yl)-1-(4-methoxy-d3-phenyl)-3,4-dihydropyrido[2,3-d]pyrimidin-2(1H)-one] | < 100 | 100 to 1000 | < 100 | > 1000 |
| COc1ccc(N2C(=O)N(c3cn[nH]c3)Cc3cnc(NCC(F)(F)F)nc32)cc1 [Example 231, 1-(4-methoxyphenyl)-3-(1H-pyrazol-4-yl)-7-((2,2,2-trifluoroethyl)amino)-3,4-dihydropyrimido[4,5-d]pyrimidin-2(1H)-one] | 100 to 1000 | 100 to 1000 | > 1000 | > 1000 |
| CCOc1ccc2c(n1)N(c1ccc(OC(F)F)cc1)C(=O)N(c1ccc3nncn3c1)C2 [Example 108, 3-([1,2,4]triazolo[4,3-a]pyridin-6-yl)-1-(4-(difluoromethoxy)phenyl)-7-ethoxy-3,4-dihydropyrido[2,3-d]pyrimidin-2(1H)-one] | < 100 | 100 to 1000 | 100 to 1000 | > 1000 |
| [2H]C([2H])([2H])Oc1ccc(N2C(=O)N(c3ccc4nn(C)cc4c3)Cc3c(C)cc(OCC(F)F)nc32)cc1 [Example 185, 7-(2,2-difluoroethoxy)-1-(4-methoxy-d3-phenyl)-5-methyl-3-(2-methyl-2H-indazol-5-yl)-3,4-dihydropyrido[2,3-d]pyrimidin-2(1H)-one] | < 100 | < 100 | < 100 | 100 to 1000 |
| O=C1N(c2ccc3ncsc3c2)Cc2cnc(NCC(F)(F)F)nc2N1c1ccc(-c2nc[nH]n2)cc1 [Example 219, 1-(4-(1H-1,2,4-triazol-3-yl)phenyl)-3-(benzo[d]thiazol-6-yl)-7-((2,2,2-trifluoroethyl)amino)-3,4-dihydropyrimido[4,5-d]pyrimidin-2(1H)-one] | < 100 | < 100 | 100 to 1000 | > 1000 |
| CCOc1ccc2c(n1)N(c1ccc(OC(F)F)cc1)C(=O)N(c1ccc3nnn(C)c3c1)C2 [Example 109] | < 100 | < 100 | 100 to 1000 | > 1000 |
| CCOc1cnc2c(c1)N(c1ccc(OC(F)F)cc1)C(=O)N(c1ccc3nn(C)cc3c1)C2 [Example 290] | < 100 | 100 to 1000 | 100 to 1000 | > 1000 |
| COc1ccc(N2Cc3ncc(NCC(F)(F)F)nc3N(c3ccc(Cl)cc3)C2=O)cc1 [Example 416, 1-(4-chlorophenyl)-3-(4-methoxyphenyl)-7-((2,2,2-trifluoroethyl)amino)-3,4-dihydropteridin-2(1H)-one] | < 100 | 100 to 1000 | 100 to 1000 | > 1000 |
| [2H]C([2H])([2H])Oc1ccc(N2C(=O)N(c3ccc4nn(CC)cc4c3)Cc3ccc(OCC(F)F)nc32)cc1 [Example 124, 7-(2,2-difluoroethoxy)-3-(2-ethyl-2H-indazol-5-yl)-1-(4-methoxy-d3-phenyl)-3,4-dihydropyrido[2,3-d]pyrimidin-2(1H)-one] | < 100 | < 100 | < 100 | > 1000 |
| COc1ccc(N2C(=O)N(c3ccc4ncn(C)c4c3)Cc3ccc(OCC(F)F)nc32)cc1 [Example 139, 7-(2,2-difluoroethoxy)-1-(4-methoxyphenyl)-3-(1-methyl-1H-benzo[d]imidazol-6-yl)-3,4-dihydropyrido[2,3-d]pyrimidin-2(1H)-one] | < 100 | < 100 | < 100 | > 1000 |
| CO[C@H]1CC[C@H](N2C(=O)N(c3ccc4nn(C)cc4c3)Cc3ccc(OCC(F)F)nc32)CC1 [Example 429, 7-(2,2-difluoroethoxy)-1-(trans-4-methoxycyclohexyl)-3-(2-methyl-2H-indazol-5-yl)-3,4-dihydropyrido[2,3-d]pyrimidin-2(1H)-one] | < 100 | 100 to 1000 | 100 to 1000 | > 1000 |
| [2H]C([2H])([2H])Oc1ccc(N2C(=O)N(c3ccc4nc(C)n(C)c4c3)Cc3ccc(OC(C)C)nc32)cc1 [Example 434, 3-(1,2-dimethyl-1H-benzo[d]imidazol-6-yl)-7-isopropoxy-1-(4-(methoxy-d3)phenyl)-3,4-dihydropyrido[2,3-d]pyrimidin-2(1H)-one] | < 100 | < 100 | < 100 | 100 to 1000 |
| CCOc1ccc2c(n1)N(c1ccc(OC(F)F)cc1)C(=O)N(c1ccc3nn(C)cc3c1)C2 [Example 131, 1-(4-(difluoromethoxy)phenyl)-7-ethoxy-3-(2-methyl-2H-indazol-5-yl)-3,4-dihydropyrido[2,3-d]pyrimidin-2(1H)-one] | < 100 | < 100 | 100 to 1000 | 100 to 1000 |
| COc1ccc(N2C(=O)N(c3ccc4nn(C)cc4c3)Cc3c(C)nc(NCC(F)(F)F)nc32)cc1 [Example 247, 1-(4-methoxyphenyl)-5-methyl-3-(2-methyl-2H-indazol-5-yl)-7-((2,2,2-trifluoroethyl)amino)-3,4-dihydropyrimido[4,5-d]pyrimidin-2(1H)-one] | < 100 | < 100 | < 100 | 100 to 1000 |
| O=C1N(c2ccc3ncsc3c2)Cc2ccc(OCC(F)F)nc2N1c1ccc(Br)cc1 [Example 409, 3-(benzo[d]thiazol-6-yl)-1-(4-bromophenyl)-7-(2,2-difluoroethoxy)-3,4-dihydropyrido[2,3-d]pyrimidin-2(1H)-one] | < 100 | < 100 | < 100 | 100 to 1000 |
| [2H]C([2H])([2H])Oc1ccc(N2C(=O)N(c3ccc4nn(C)cc4c3)Cc3ncc(OCC(F)F)nc32)cc1 [Example 181, 7-(2,2-difluoroethoxy)-1-(4-(methoxy-d3)phenyl)-3-(2-methyl-2H-indazol-5-yl)-3,4-dihydropteridin-2(1H)-one] | < 100 | < 100 | < 100 | > 1000 |
| Cn1cc2cc(N3Cc4ncc(OCC(F)F)nc4N(c4ccc(OC(F)F)cc4)C3=O)ccc2n1 [Example 182, 7-(2,2-difluoroethoxy)-1-(4-(difluoromethoxy)phenyl)-3-(2-methyl-2H-indazol-5-yl)-3,4-dihydropteridin-2(1H)-one] | < 100 | < 100 | 100 to 1000 | 100 to 1000 |
| CCOc1ccc2c(n1)N(c1ccc(OC(F)F)cc1)C(=O)N(c1ccc3ncn(C)c3c1)C2 [Example 272] | < 100 | < 100 | 100 to 1000 | > 1000 |
